Laboratory results taken from US7279286B2, “High-throughput-assay with high sensitivity for measuring of the activity of β-adrenergic receptor kinase and for determining the impact of test substances on such activity” (Sanofi-Aventis Deutschland GmbH, priority 2003, dated 2007).

Experiments:
[1] = target: T1, βARK (Homo sapiens, UniProt P25098, A211R/K465R/R422H); test: βARK inhibition AlphaScreen assay (phosphorylation of biotinylated CCR5 peptide); type: biochemical; details: assay validation, read-out: apparent Km (ATP dependence)
T1 sequence (P25098 1-689 A211R/R422H/K465R): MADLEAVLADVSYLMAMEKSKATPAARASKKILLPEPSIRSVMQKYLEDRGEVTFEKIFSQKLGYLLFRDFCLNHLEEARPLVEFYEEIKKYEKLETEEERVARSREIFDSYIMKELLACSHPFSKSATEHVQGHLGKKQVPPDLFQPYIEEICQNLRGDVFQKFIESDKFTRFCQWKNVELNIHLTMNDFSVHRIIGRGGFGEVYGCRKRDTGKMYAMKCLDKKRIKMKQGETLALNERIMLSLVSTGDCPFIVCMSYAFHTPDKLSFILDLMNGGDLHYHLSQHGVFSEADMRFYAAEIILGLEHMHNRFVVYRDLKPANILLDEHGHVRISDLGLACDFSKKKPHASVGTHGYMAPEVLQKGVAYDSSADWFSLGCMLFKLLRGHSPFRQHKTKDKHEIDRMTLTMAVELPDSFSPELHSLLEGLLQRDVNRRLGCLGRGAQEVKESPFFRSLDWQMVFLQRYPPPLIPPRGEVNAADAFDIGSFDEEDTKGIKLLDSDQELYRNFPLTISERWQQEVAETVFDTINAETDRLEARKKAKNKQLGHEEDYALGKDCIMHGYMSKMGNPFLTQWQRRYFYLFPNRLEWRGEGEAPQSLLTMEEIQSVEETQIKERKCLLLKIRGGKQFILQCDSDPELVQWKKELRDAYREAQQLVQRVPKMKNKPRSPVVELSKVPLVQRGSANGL
Source text: (§1) In the βARK inhibition experiment biotinylated hunian CC ehemokine receptor 5, herein abbreviated CCR5 peptide (Seq. ID No. 1) is phosphorylated by the kinase. The phosphorylated serine is recognized by a specific antibody which, in turn, is bound to protein A coupled acceptor beads. The biotinylated N-terminus of the CCR5 peptide is coupled to streptavidin-coated donor heads. Thus, in the absence of inhibitors an AlphaScreen signal is detected that decreases when the enzymatic activity in inhibited. […]
(§2) Percent-inhibition values are calculated as: […]

[2] = target: T2, βARK (Homo sapiens, UniProt P25098); test: as above; type: biochemical; details: 0.5 μM βARK, 100 nM CCR5 peptide, 10 μM ATP, 120 min room temperature, read-out: IC50 (dose-response curve)
T2 sequence (P25098 1-689 A211R/R422H/K465R): T1 sequence (P25098 1-689 A211R/R422H/K465R)
Source text: as §1, §2

Which Km [1] does the source give for `Nc1ncnc2c1ncn2[C@@H]1O[C@H](COP(=O)(O)OP(=O)(O)OP(=O)(O)O)[C@@H](O)[C@H]1O` [ATP] here?
Its Km is 4 µM.

How did the IC50 [2] turn out when heparin was run?
The IC50 was 50 nM.
